Source: patent US8222268B2, “Methods for reducing vein irritation” (Adventrx Pharmaceuticals, Inc., priority 2004, dated 2012)
Counter-ions that a name gives are not always drawn. Values belong to the compound of their own block, whether it stands above or below them.

Tests used:
[1] = in distilled water; bitartrate salt form; cited from earlier work
[2] = Dialysis test of vinorelbine incorporation into the oil phase of an emulsion; details: for effect of stabilizer on vinorelbine incorporation into the oil phase (vinorelbine concentration in PBS): dialysis against PBS pH 7.4, emulsion with […] (w/w) vinorelbine bitartrate, FIG. 1
Method: The concentration of each stabilizer added into formulation is: 1.57% (w/w) for sodium oleate, 2.73% (w/w) for vitamin E succinate, 2.46% (w/w) for riboflavin-5-phosphate sodium and 2.52% (w/w) for cholesterol sulfate. A formulation without any stabilizer (“control”) and a formulation with extra Phospholipon 90G were also evaluated in the study.
The drug incorporation into the oil phase was tested using a dialysis method developed specifically for this purpose. This method involved filling 500 mg of an emulsion into a Slide-A-Lyzer dialysis cassette with 10,000 MW cutoffs, placing the cassette in 70 mL phosphate buffered saline (PBS), pH 7.4 and shaking the solution on a platform shaker at 100 RPM.

SMILES: CCC1=C[C@@H]2CN(C1)Cc1c([nH]c3ccccc13)[C@@](C(=O)OC)(c1cc3c(cc1OC)N(C)[C@H]1[C@@](O)(C(=O)OC)[C@H](OC(C)=O)[C@]4(CC)C=CCN5CC[C@]31[C@@H]54)C2 (relative stereo) [vinorelbine bitartrate, 3′,4′-didehydro-4′-deoxy-C′-norvincaleukoblastine [R-(R*,R*)-2,3-dihydroxybutanedioate (1:2) (salt)]]
- aqueous solubility [1]: > 1000 mg/mL

SMILES: Cc1cc2nc3c(=O)[nH]c(=O)nc-3n(C[C@H](O)[C@H](O)[C@H](O)COP(=O)([O-])O)c2cc1C.[Na+] [riboflavin-5-phosphate, riboflavin-5-phosphate sodium]
- effect of stabilizer on vinorelbine incorporation into the oil phase (vinorelbine concentration in PBS) [2]: most effective stabilizers

- incorporation of vinorelbine in the oil phase ([2]; emulsion without a stabilizer): present primarily in the aqueous phase
SMILES: CCC1=C[C@@H]2CN(C1)Cc1c([nH]c3ccccc13)[C@@](C(=O)OC)(c1cc3c(cc1OC)N(C)[C@H]1[C@@](O)(C(=O)OC)[C@H](OC(C)=O)[C@]4(CC)C=CCN5CC[C@]31[C@@H]54)C2 [vinorelbine, reference compound]

SMILES: Cc1c(C)c2c(c(C)c1OC(=O)CCC(=O)O)CC[C@@](C)(CCC[C@H](C)CCC[C@H](C)CCCC(C)C)O2 [Vitamin E succinate, vitamin E succinate]
- effect of stabilizer on vinorelbine incorporation into the oil phase (vinorelbine concentration in PBS) [2]: most effective stabilizers

SMILES: CCCCCCCC/C=C\CCCCCCCC(=O)[O-].[Na+] [sodium oleate]
- effect of stabilizer on vinorelbine incorporation into the oil phase (vinorelbine concentration in PBS) [2]: most effective stabilizers
- partition of vinorelbine into the aqueous phase ([2]; vinorelbine-to-oleate molar ratio of 1:4 (charge ratio of 1:1), dialysis, 28 hours, FIG. 2): almost completely stopped the partition of vinorelbine into the aqueous phase
